pKi: −log10 of the molar value.
How the values were obtained:
D(1A) dopamine receptor = D(1A) dopamine receptor (Rattus norvegicus, UniProt P18901); assay: Binding affinity for rat striatum Dopamine receptor D1 by […] displacement.; format: tissue-based
D(2) dopamine receptor = D(2) dopamine receptor (Rattus norvegicus, UniProt P61169); assay: Binding affinity for rat striatum Dopamine receptor D2 by [3H]spiperone displacement.; format: tissue-based
D(3) dopamine receptor = D(3) dopamine receptor (Rattus norvegicus, UniProt P19020); assay: biochemical
D(3) dopamine receptor, sequence (P19020 whole entry): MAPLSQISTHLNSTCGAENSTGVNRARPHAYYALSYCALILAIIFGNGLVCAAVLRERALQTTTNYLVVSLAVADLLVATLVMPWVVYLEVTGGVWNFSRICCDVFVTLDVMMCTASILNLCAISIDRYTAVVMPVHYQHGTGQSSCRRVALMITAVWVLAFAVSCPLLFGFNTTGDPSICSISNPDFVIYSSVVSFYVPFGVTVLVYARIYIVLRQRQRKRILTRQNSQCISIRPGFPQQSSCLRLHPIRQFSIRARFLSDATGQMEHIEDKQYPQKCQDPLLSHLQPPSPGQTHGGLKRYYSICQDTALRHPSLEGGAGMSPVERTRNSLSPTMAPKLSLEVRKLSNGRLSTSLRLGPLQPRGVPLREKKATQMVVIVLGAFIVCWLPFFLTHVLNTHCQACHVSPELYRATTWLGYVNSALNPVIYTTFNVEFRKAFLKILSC
Description: Binding affinity for rat striatum Dopamine receptor D3 (sf9 cells) by [3H]7-OH-DPAT displacement.

[1] = target: T1, Alpha-1A adrenergic receptor (Rattus norvegicus, UniProt P43140); assay: Binding affinity for rat cortex alpha-1 adrenergic receptor by inhibition of [3H]prazosin binding
T1 sequence (P43140 whole entry): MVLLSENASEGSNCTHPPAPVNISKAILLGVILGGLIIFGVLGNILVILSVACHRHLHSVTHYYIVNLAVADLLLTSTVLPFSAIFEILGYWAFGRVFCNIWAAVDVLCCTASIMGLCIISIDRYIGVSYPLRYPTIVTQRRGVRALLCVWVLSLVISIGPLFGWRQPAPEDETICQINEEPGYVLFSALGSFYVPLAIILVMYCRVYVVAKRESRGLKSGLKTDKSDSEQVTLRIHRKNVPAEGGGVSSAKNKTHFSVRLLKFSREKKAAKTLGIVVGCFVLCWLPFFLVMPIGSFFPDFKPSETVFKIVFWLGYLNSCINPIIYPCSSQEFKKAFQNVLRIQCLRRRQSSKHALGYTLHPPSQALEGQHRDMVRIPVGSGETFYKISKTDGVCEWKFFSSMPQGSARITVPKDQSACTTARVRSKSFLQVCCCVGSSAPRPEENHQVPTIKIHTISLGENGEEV

[2] = target: T2, Alpha-2A adrenergic receptor (Rattus norvegicus, UniProt P22909); assay: Binding affinity for rat cortex Alpha-2 adrenergic receptor was determined using [3H]-RX 81002 binding
T2 sequence (P22909 whole entry): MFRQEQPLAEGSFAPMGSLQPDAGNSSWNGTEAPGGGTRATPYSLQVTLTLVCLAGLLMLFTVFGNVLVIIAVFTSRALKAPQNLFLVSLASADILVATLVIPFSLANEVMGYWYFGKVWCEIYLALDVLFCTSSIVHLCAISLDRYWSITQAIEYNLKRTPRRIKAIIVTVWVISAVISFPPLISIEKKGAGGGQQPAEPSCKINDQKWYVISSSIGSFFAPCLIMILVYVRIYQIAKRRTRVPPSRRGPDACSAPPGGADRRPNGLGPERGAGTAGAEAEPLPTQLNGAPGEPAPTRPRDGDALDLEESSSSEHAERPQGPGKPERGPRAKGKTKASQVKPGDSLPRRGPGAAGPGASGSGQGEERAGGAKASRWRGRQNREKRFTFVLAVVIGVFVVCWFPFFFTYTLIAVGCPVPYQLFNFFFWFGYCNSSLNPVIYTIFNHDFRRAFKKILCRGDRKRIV

[3] = target: T3, 5-hydroxytryptamine receptor 1A (Rattus norvegicus, UniProt P19327); assay: Binding affinity for rat hippocampus 5-hydroxytryptamine 1A receptor by inhibition of [3H]8-OH-DPAT binding; format: tissue-based
T3 sequence (P19327 whole entry): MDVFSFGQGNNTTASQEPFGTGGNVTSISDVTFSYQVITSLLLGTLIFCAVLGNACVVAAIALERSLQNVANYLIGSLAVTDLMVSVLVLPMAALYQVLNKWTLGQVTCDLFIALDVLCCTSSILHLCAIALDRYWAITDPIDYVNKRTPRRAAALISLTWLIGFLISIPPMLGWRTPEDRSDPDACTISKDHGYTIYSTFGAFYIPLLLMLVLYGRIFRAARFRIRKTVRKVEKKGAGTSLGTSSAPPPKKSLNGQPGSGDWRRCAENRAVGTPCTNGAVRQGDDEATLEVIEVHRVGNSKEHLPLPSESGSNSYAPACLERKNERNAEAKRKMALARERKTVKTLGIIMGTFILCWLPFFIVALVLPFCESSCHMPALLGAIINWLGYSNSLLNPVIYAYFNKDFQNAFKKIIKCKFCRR

[4] = target: T2, Alpha-2A adrenergic receptor; assay: Binding affinity for rat cortex alpha-2 adrenergic receptor was determined using [3H]-RX 81002 binding
[5] = target: D(3) dopamine receptor (Homo sapiens) (UniProt P35462); assay: Maximal stimulation reached was evaluated by using [35S]- GTP-gamma S radioligand; format: functional
D(3) dopamine receptor (Homo sapiens), sequence (P35462 whole entry): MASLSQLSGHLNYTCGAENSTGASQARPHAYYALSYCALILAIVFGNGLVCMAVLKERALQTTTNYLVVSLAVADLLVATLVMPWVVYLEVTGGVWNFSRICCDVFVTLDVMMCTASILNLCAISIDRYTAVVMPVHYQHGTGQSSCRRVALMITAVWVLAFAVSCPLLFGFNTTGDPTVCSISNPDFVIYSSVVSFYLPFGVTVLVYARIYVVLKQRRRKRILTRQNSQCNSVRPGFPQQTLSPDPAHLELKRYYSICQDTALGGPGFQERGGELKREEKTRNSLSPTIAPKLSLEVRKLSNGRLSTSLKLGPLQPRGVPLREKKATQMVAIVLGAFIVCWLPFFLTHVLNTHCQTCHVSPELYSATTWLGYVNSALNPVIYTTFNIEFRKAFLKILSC

D(2) dopamine receptor, sequence (P61169 whole entry): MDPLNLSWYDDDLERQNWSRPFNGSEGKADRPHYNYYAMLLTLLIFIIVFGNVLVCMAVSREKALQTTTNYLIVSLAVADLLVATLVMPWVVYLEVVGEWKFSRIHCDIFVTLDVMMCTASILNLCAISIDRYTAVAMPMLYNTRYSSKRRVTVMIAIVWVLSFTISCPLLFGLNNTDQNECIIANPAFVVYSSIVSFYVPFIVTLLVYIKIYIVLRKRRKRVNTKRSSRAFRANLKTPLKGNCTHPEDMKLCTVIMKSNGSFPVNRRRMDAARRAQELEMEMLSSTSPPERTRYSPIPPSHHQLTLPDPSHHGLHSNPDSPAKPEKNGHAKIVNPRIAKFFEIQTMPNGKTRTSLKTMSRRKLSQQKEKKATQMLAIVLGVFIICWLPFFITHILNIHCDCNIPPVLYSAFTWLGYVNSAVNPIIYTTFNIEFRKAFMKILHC
D(1A) dopamine receptor, sequence (P18901 whole entry): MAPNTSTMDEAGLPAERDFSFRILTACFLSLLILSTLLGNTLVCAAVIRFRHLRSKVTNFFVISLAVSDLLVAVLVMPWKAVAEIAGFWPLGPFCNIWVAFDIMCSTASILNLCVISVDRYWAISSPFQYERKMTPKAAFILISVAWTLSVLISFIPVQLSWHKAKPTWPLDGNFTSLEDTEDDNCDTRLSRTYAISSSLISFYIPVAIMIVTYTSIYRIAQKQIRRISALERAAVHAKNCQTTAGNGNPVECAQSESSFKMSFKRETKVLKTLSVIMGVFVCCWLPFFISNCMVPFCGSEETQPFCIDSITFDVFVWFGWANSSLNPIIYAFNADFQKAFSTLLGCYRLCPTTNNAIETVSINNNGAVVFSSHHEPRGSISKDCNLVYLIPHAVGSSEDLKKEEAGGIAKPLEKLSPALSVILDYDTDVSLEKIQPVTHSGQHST

| Compound | pKi (D(1A) dopamine receptor) | pKi (D(2) dopamine receptor) | pKi (D(3) dopamine receptor) | pKi [1] | pKi [2] | pKi [3] | pKi [4] | Activity [5] [µM] |
| --- | --- | --- | --- | --- | --- | --- | --- | --- |
| O=C(NCCCCN1CCN(c2ccc(Cl)c(Cl)c2)CC1)c1cc2ccccc2o1 | 5.78 | 6.48 | 8.11 | – | – | – | – | – |
| O=C(NCCCCN1CCN(c2ccc(Cl)cc2Cl)CC1)c1cc2ccccc2[nH]1 | < 5.00 | – | – | 6.26 | < 5.00 | – | – | – |
| COc1ccccc1N1CCN(CCNCc2coc(-c3ccc4ccccc4c3)n2)CC1 | < 5.00 | 7.07 | 6.53 | – | – | – | – | – |
| COc1ccccc1N1CCN(CCNCc2coc(-c3cc4ccccc4o3)n2)CC1 | < 5.00 | 6.29 | 6.12 | – | – | – | – | – |
| COc1ccccc1N1CCN(CCCCNC(=O)c2cc3ccccc3cn2)CC1 | 5.83 | 7.12 | 9.31 | 8.24 | – | 8.51 | 7.12 | – |
| NCCc1c[nH]c2ccc(O)cc12 | – | – | – | – | – | – | – | 30 |
| COc1ccccc1N1CCN(CCCCNC(=O)[C@@H]2Cc3ccccc3CN2)CC1 | – | – | 8.04 | – | – | – | – | – |
| O=C(NCCCCN1CCN(c2ccc(Cl)cc2Cl)CC1)c1cc2ccccc2o1 | 5.12 | 6.39 | 9.39 | 6.11 | 5.72 | 6.04 | – | – |
| COc1ccccc1N1CCN(CCCCNC(=O)c2cnc3ccccc3n2)CC1 | 5.84 | 7.08 | 7.96 | – | – | – | – | – |
| COc1ccccc1N1CCN(CCCCNC(=O)[C@H]2Cc3ccccc3CN2)CC1 | – | – | 8.37 | – | – | – | – | – |
| N#Cc1ccc(N2CCN(CCCCNC(=O)c3cc4ccccc4o3)CC2)cc1 | – | – | 7.38 | – | – | – | – | – |
| COc1ccccc1N1CCN(CCCCNC(=O)c2nc3ccccc3n3cccc23)CC1 | 6.11 | 7.23 | 7.55 | – | – | – | – | – |
| COc1ccccc1N1CCN(CCCCNC(=O)c2ccc3ccccc3n2)CC1 | 5.87 | 7.08 | 8.32 | – | – | – | – | – |
| COc1ccccc1N1CCN(CCCCNC(=O)c2cc3ccccc3o2)CC1 | – | – | – | 7.44 | 7.27 | – | – | – |
| O=C(NCCCCN1CCN(c2ccc(Cl)cc2Cl)CC1)c1cc2cc(Cl)ccc2[nH]1 | < 5.00 | – | 9.42 | 5.09 | < 5.00 | – | – | – |
| COc1ccccc1N1CCN(CCCCN2CCn3c(cc4ccccc43)C2=O)CC1 | 5.80 | 7.35 | 9.06 | 7.48 | 7.05 | 8.31 | – | – |
| COc1ccccc1N1CCN(CCCCNC(=O)c2ccc3ccccc3c2)CC1 [BP-897] | – | – | – | – | 7.08 | – | – | – |
| COc1ccccc1N1CCN(CC2CCN(C(=O)c3cc4ccccc4o3)CC2)CC1 | 5.57 | 6.61 | 7.13 | – | – | – | – | – |
| COc1ccccc1N1CCN(CCCCNC(=O)c2cc3ccccc3[nH]2)CC1 | 6.01 | 6.80 | 8.54 | 6.18 | 7.12 | 7.93 | – | – |
| O=C(NCCCCN1CCN(c2ccc(Cl)cc2Cl)CC1)c1cc2ccccc2cn1 | 5.11 | 6.47 | 9.18 | 6.20 | 5.98 | 5.98 | – | – |

Source: ChEMBL document CHEMBL1145068 (J Med Chem, 2003)
